In US7745619B2, “Vinca derivatives” (priority 2003, dated 2010):
Where two headings read alike, the source gives them in different places.

Columns and labels:
NCI-H23 = format: cell-based; conditions: Homo sapiens, Non-Small Cell Lung, read-out: GI50
MDA-MB-231/ATCC = experiment: NCI 60-cell line growth inhibition assay: MDA-MB-231/ATCC; format: cell-based; conditions: Homo sapiens; Breast, MDA-MB-231/ATCC; read-out: GI50
A549/ATCC = experiment: NCI 60-cell line growth inhibition assay: A549/ATCC; format: cell-based; conditions: Homo sapiens; Non-Small Cell Lung, A549/ATCC; read-out: GI50
SNB-75 = experiment: NCI 60-cell line growth inhibition assay: SNB-75; format: cell-based; conditions: Homo sapiens, CNS, read-out: GI50
M14 = experiment: NCI 60-cell line growth inhibition assay: M14; format: cell-based; conditions: Homo sapiens, Melanoma, read-out: GI50
HOP-62 = experiment: NCI 60-cell line growth inhibition assay: HOP-62; format: cell-based; conditions: Homo sapiens, Non-Small Cell Lung, read-out: GI50
TK-10 = experiment: NCI 60-cell line growth inhibition assay: TK-10; format: cell-based; conditions: Homo sapiens, Renal, read-out: GI50
SW-620 = experiment: NCI 60-cell line growth inhibition assay: SW-620; format: cell-based; conditions: Homo sapiens, Colon, read-out: GI50
MDA-MB-435 = experiment: NCI 60-cell line growth inhibition assay: MDA-MB-435; format: cell-based; conditions: Homo sapiens, Breast, read-out: GI50
SN12C = experiment: NCI 60-cell line growth inhibition assay: SN12C; format: cell-based; conditions: Homo sapiens, Renal, read-out: GI50
ACHN = experiment: NCI 60-cell line growth inhibition assay: ACHN; format: cell-based; conditions: Homo sapiens, Renal, read-out: GI50
SNB-19 = experiment: NCI 60-cell line growth inhibition assay: SNB-19; format: cell-based; conditions: Homo sapiens, CNS, read-out: GI50
KM12 = experiment: NCI 60-cell line growth inhibition assay: KM12; format: cell-based; conditions: Homo sapiens, Colon, read-out: GI50
CAKI-1 = experiment: NCI 60-cell line growth inhibition assay: CAKI-1; format: cell-based; conditions: Homo sapiens, Renal, read-out: GI50
OVCAR-5 = experiment: NCI 60-cell line growth inhibition assay: OVCAR-5; format: cell-based; conditions: Homo sapiens, Ovarian, read-out: GI50
COLO 205 = experiment: NCI 60-cell line growth inhibition assay: COLO 205; format: cell-based; conditions: Homo sapiens, Colon, read-out: GI50
SK-OV-3 = experiment: NCI 60-cell line growth inhibition assay: SK-OV-3; format: cell-based; conditions: Homo sapiens, Ovarian, read-out: GI50
LOX IMVI = experiment: NCI 60-cell line growth inhibition assay: LOX IMVI; format: cell-based; conditions: Homo sapiens, Melanoma, read-out: GI50
UO-31 = experiment: NCI 60-cell line growth inhibition assay: UO-31; format: cell-based; conditions: Homo sapiens, Renal, read-out: GI50
OVCAR-8 = experiment: NCI 60-cell line growth inhibition assay: OVCAR-8; format: cell-based; conditions: Homo sapiens, Ovarian, read-out: GI50
NCI-H460 = format: cell-based; conditions: Homo sapiens, Non-Small Cell Lung, read-out: GI50
HT29 = experiment: NCI 60-cell line growth inhibition assay: HT29; format: cell-based; conditions: Homo sapiens, HT-29; Colon, HT29; read-out: GI50
SF-295 = experiment: NCI 60-cell line growth inhibition assay: SF-295; format: cell-based; conditions: Homo sapiens, CNS, read-out: GI50
SK-MEL-5 = experiment: NCI 60-cell line growth inhibition assay: SK-MEL-5; format: cell-based; conditions: Homo sapiens, Melanoma, read-out: GI50
A498 = experiment: NCI 60-cell line growth inhibition assay: A498; format: cell-based; conditions: Homo sapiens, Renal
Text: The following data in Table 4 summarize the growth inhibition properties of several compounds of the present invention against 60-human transformed cell lines.

HS 578T = experiment: NCI 60-cell line growth inhibition assay: HS 578T; format: cell-based; conditions: Homo sapiens; Breast, HS 578T; read-out: GI50
RXF 393 = experiment: NCI 60-cell line growth inhibition assay: RXF 393; format: cell-based; conditions: Homo sapiens, Renal, read-out: GI50
MOLT-4 = experiment: NCI 60-cell line growth inhibition assay: MOLT-4; format: cell-based; conditions: Homo sapiens, Leukemia, read-out: GI50
HOP-92 = experiment: NCI 60-cell line growth inhibition assay: HOP-92; format: cell-based; conditions: Homo sapiens, Non-Small Cell Lung, read-out: GI50
OVCAR-4 = experiment: NCI 60-cell line growth inhibition assay: OVCAR-4; format: cell-based; conditions: Homo sapiens, Ovarian, read-out: GI50
U251 = experiment: NCI 60-cell line growth inhibition assay: U251; format: cell-based; conditions: Homo sapiens, U-251; CNS, U251; read-out: GI50
DU-145 = experiment: NCI 60-cell line growth inhibition assay: DU-145; format: cell-based; conditions: Homo sapiens, Prostate, read-out: GI50
K-562 = experiment: NCI 60-cell line growth inhibition assay: K-562; format: cell-based; conditions: Homo sapiens, K562; Leukemia, K-562; read-out: GI50
PC-3 = experiment: NCI 60-cell line growth inhibition assay: PC-3; format: cell-based; conditions: Homo sapiens, Prostate, read-out: GI50
EKVX = experiment: NCI 60-cell line growth inhibition assay: EKVX; format: cell-based; conditions: Homo sapiens, Non-Small Cell Lung, read-out: GI50
NCI/ADR-RES = format: cell-based; conditions: Homo sapiens, Breast, read-out: GI50
UACC-62 = experiment: NCI 60-cell line growth inhibition assay: UACC-62; format: cell-based; conditions: Homo sapiens, Melanoma, read-out: GI50
UACC-257 = experiment: NCI 60-cell line growth inhibition assay: UACC-257; format: cell-based; conditions: Homo sapiens, Melanoma, read-out: GI50
HCT-15 = experiment: NCI 60-cell line growth inhibition assay: HCT-15; format: cell-based; conditions: Homo sapiens, Colon, read-out: GI50
BT-549 = experiment: NCI 60-cell line growth inhibition assay: BT-549; format: cell-based; conditions: Homo sapiens, Breast, read-out: GI50
NCI-H522 = format: cell-based; conditions: Homo sapiens, Non-Small Cell Lung, read-out: GI50
SF-539 = experiment: NCI 60-cell line growth inhibition assay: SF-539; format: cell-based; conditions: Homo sapiens; CNS, SF-539; read-out: GI50
OVCAR-3 = experiment: NCI 60-cell line growth inhibition assay: OVCAR-3; format: cell-based; conditions: Homo sapiens, Ovarian, read-out: GI50
HCT-116 = experiment: NCI 60-cell line growth inhibition assay: HCT-116; format: cell-based; conditions: Homo sapiens, Colon, read-out: GI50
SK-MEL-2 = experiment: NCI 60-cell line growth inhibition assay: SK-MEL-2; format: cell-based; conditions: Homo sapiens, Melanoma, read-out: GI50
HCC-2998 = experiment: NCI 60-cell line growth inhibition assay: HCC-2998; format: cell-based; conditions: Homo sapiens; Colon, HCC-2998; read-out: GI50
MALME-3M = experiment: NCI 60-cell line growth inhibition assay: MALME-3M; format: cell-based; conditions: Homo sapiens; Melanoma, MALME-3M; read-out: GI50
786-0 = experiment: NCI 60-cell line growth inhibition assay: 786-0; format: cell-based; conditions: Homo sapiens, Renal, read-out: GI50
MCF7 = experiment: NCI 60-cell line growth inhibition assay: MCF7; format: cell-based; conditions: Homo sapiens, Breast, read-out: GI50
MCF-7 cells = experiment: MCF-7 GI50 determination (crystal violet growth inhibition); format: cell-based, human
How it was run: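 MCF-7 cells seeded at 2×10^4 cells/well, grown 24 h drug-free, then exposed to 10-fold compound dilutions for 4 days. Glutaraldehyde-fixed cells stained with crystal violet, absorbance read at 570 nm; GI=100×(T/T0) against day-0 control OD, GI50 from growth inhibition versus concentration plots.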

HeLa S-3 cells = experiment: HeLa GI50 determination (SRB growth inhibition); format: cell-based, human
How it was run: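 Cells plated at 2×10^4/well; day-0 plate TCA-fixed, test compounds added at 10-fold dilutions for 2 days. SRB staining, absorbance at 490 nm; GI = 100×(T−T0)/(C−T0), GI50 from growth inhibition vs. concentration plots.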

## C#Cc1ccc2[nH]c3c(c2c1)CCN1C[C@H](C[C@@](O)(CC)C1)C[C@]3(C(=O)OC)c1cc2c(cc1OC)N(C)[C@H]1[C@@](O)(C(=O)OC)[C@H](OC(C)=O)[C@]3(CC)C=CCN4CC[C@]21[C@@H]43 [Example 17, 12′-ethynylvinblastine]
NCI-H23
  GI50: < 10 nM
MDA-MB-231/ATCC
  GI50: < 10 nM
A549/ATCC
  GI50: 16.9 nM
SNB-75
  GI50: < 10 nM
M14
  GI50: < 10 nM
HOP-62
  GI50: < 10 nM
TK-10
  GI50: < 10 nM
SW-620
  GI50: < 10 nM
MDA-MB-435
  GI50: < 10 nM
SN12C
  GI50: < 10 nM
ACHN
  GI50: < 10 nM
SNB-19
  GI50: < 10 nM
KM12
  GI50: < 10 nM
CAKI-1
  GI50: 73.4 nM
OVCAR-5
  GI50: < 10 nM
COLO 205
  GI50: < 10 nM
SK-OV-3
  GI50: < 10 nM
LOX IMVI
  GI50: < 10 nM
UO-31
  GI50: 98.6 nM
OVCAR-8
  GI50: < 10 nM
NCI-H460
  GI50: < 10 nM
HT29
  GI50: < 10 nM
SF-295
  GI50: < 10 nM
SK-MEL-5
  GI50: < 10 nM
A498
  GI50: < 10 nM
HS 578T
  GI50: < 10 nM
RXF 393
  GI50: < 10 nM
MOLT-4
  GI50: < 10 nM
HOP-92
  GI50: 160 nM
OVCAR-4
  GI50: 15.3 nM
U251
  GI50: < 10 nM
DU-145
  GI50: < 10 nM
K-562
  GI50: 53.1 nM
PC-3
  GI50: < 10 nM
EKVX
  GI50: < 10 nM
NCI/ADR-RES
  GI50: 2090 nM
UACC-62
  GI50: < 10 nM
UACC-257
  GI50: 22400 nM
HCT-15
  GI50: 44 nM
BT-549
  GI50: < 10 nM
NCI-H522
  GI50: < 10 nM
SF-539
  GI50: < 10 nM
OVCAR-3
  GI50: < 10 nM
HCT-116
  GI50: < 10 nM
SK-MEL-2
  GI50: < 10 nM
HCC-2998
  GI50: < 10 nM
MALME-3M
  GI50: < 10 nM
786-0
  GI50: < 10 nM
MCF7
  GI50: < 10 nM

## CC[C@]1(O)C[C@H]2CN(CCc3c([nH]c4ccc(SCc5ccccc5Cl)cc34)[C@@](C(=O)OC)(c3cc4c(cc3OC)N(C=O)[C@H]3[C@@](O)(C(=O)OC)[C@H](OC(C)=O)[C@]5(CC)C=CCN6CC[C@]43[C@@H]65)C2)C1 [Example 37, 12′-(2-chlorobenzylsulfanyl)vinblastine]
MCF-7 cells; Homo sapiens, MCF7, 96 h, read-out: MCF-7 Cells GI50 (nM)
  GI50: 200 nM
HeLa S-3 cells; Homo sapiens, HeLa S3, 48 h, read-out: HeLa Cells GI50 (nM)
  GI50: 100 nM
other
  melting point: 168 to 170 °C

## CCC1=C[C@H]2CN(CCc3c([nH]c4ccc(Br)cc34)[C@@](C(=O)OC)(c3cc4c(cc3OC)N(C=O)[C@H]3[C@@](O)(C(=O)OC)[C@H](OC(C)=O)[C@]5(CC)C=CCN6CC[C@]43[C@@H]65)C2)C1 [Example 99, 12′-bromoanhydro vincristine]
MCF-7 cells; Homo sapiens, MCF7, 96 h, MCF-7 cells, 4 days of treatment, crystal violet, read-out: MCF-7 Cells GI50
  GI50: 1 nM
HeLa S-3 cells; Homo sapiens, HeLa S3, 48 h, HeLa S-3 cells, 2 days of treatment, sulforhodamine B, read-out: HeLa Cells GI50
  GI50: 4 nM

## di(12′-vinblastine) disulfide [Example 60]
MCF-7 cells; MCF-7 cells, 4 days of treatment, crystal violet, read-out: MCF-7 Cells GI50
  GI50: 20 nM
HeLa S-3 cells; HeLa S-3 cells, 2 days of treatment, sulforhodamine B, read-out: HeLa Cells GI50
  GI50: 10 nM
